Among the test systems are CAKI-1; MOLT-4; Hs-578T; SK-MEL-5; BT-549; SR; SW-620; M14; 786-0; HCT-15; SF-295; SF-539; SK-OV-3; UACC-62; A498; A549; SF-268; NCI-H460.
Assay in all cases: inhibition of tumour cell growth, NCI panel, 48 h

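The compound was tested at five concentrations on cells cultured in 96-well plates, with a 48-hour exposure period. Here, GI50 denotes the concentration required for 50% inhibition of growth.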 Active and inactive are the calls of the source. Rule as the data show it: active = GI50 up to about 1.1 µM and inactive = higher.

For the molecule `Cc1sc(Nc2ccc(Nc3nc(-c4ccccc4)c(C)s3)cc2)nc1-c1ccccc1`, the GI50 is 88.1 µM (inactive) in the test on CAKI-1; 17.1 µM (inactive) in the test on MOLT-4; > 100 µM (inactive) in the test with Hs-578T; 22.6 µM (inactive) in the test with SK-MEL-5; > 100 µM (inactive) in the test on BT-549; 20.9 µM (inactive) in the test with SR. In addition, the GI50 in the test with SW-620 was 40.2 µM (inactive); in the test on M14, 61.2 µM (inactive); in the test on 786-0, 21.2 µM (inactive); in the test with HCT-15, 44.8 µM; in the test on SF-295, 95.9 µM (inactive); with SF-539, 26.3 µM (inactive). The GI50 with SK-OV-3 was > 100 µM (inactive); in the test on UACC-62, 54.3 µM (inactive); in the test on A498 it was 21.8 µM (inactive); with A549, 30.1 µM (inactive); with SF-268 it was > 100 µM (inactive); with NCI-H460, 18.2 µM (inactive).

`COC(=O)[C@H]1CO[C@H]2C/C(C)=C/CC/C(C)=C/CC[C@@]3(C)O[C@@H]3C[C@H]21`: the GI50 is 36.1 µM (inactive) with CAKI-1; 10.4 µM (inactive) with MOLT-4; 14 µM (inactive) in the test on Hs-578T; 8.2 µM (inactive) in the test with SK-MEL-5; 7.8 µM (inactive) in the test on BT-549; 10.6 µM (inactive) in the test on SR. For the same molecule, the GI50 in the test on SW-620 was 10.4 µM (inactive); in the test with M14 it was 16.3 µM (inactive); in the test on 786-0, 16.3 µM (inactive); in the test on HCT-15, 9.12 µM; in the test on SF-295, 17.9 µM (inactive); with SF-539, 15.6 µM (inactive). Further, the GI50 in the test on SK-OV-3 is 29.9 µM (inactive); in the test with UACC-62, 8.87 µM (inactive); with A498, 22.9 µM (inactive); with A549, 16.3 µM (inactive); in the test with SF-268, 19.6 µM (inactive); in the test with NCI-H460, 9.73 µM (inactive).

Turning to `CN1C(=O)C(=CNc2ccc(Cl)cc2Cl)C(=O)N(C)C1=O`, the GI50 in the test with CAKI-1 was > 100 µM (inactive); in the test with MOLT-4, 66.5 µM (inactive); in the test with Hs-578T, > 100 µM (inactive); in the test with SK-MEL-5, > 100 µM (inactive); in the test on BT-549, > 100 µM (inactive); in the test on SR it was > 100 µM (inactive). The GI50 was > 100 µM (inactive) with SW-620; > 100 µM (inactive) with M14; > 100 µM (inactive) in the test on 786-0; over 100 µM with HCT-15; > 100 µM (inactive) with SF-295; > 100 µM (inactive) in the test on SF-539. Also, the GI50 with SK-OV-3, in the test with UACC-62, in the test with A498, with A549, in the test with SF-268 and in the test on NCI-H460 was > 100 µM (inactive) throughout.

With `OCc1ccc2c(c1)CC1(C2)Cc2cc3c(cc2C1O)CCC3` (configuration not stated), the GI50 is 5.25 µM (inactive) in the test on CAKI-1; 4.09 µM (inactive) in the test on MOLT-4; 2.71 µM (inactive) with Hs-578T; 3.04 µM (inactive) with SK-MEL-5; 2.86 µM (inactive) with BT-549; 2.33 µM (inactive) in the test with SR. The GI50 with SW-620 was 4.55 µM (inactive); with M14, 3.4 µM (inactive); in the test on 786-0 it was 5.64 µM (inactive); in the test on HCT-15, 3.36 µM; in the test on SF-295, 2.2 µM (inactive); in the test with SF-539, 3.5 µM (inactive). In addition, the GI50 with SK-OV-3 is 8.75 µM (inactive); in the test with UACC-62, 3.72 µM (inactive); in the test on A498, 4.44 µM (inactive); in the test with A549, 6.43 µM (inactive); in the test on SF-268 it was 10.9 µM (inactive); in the test with NCI-H460 it was 3.28 µM (inactive).

Values taken from ChEMBL document CHEMBL1201862, “PubChem BioAssay data set” (2004).
